Source: ChEMBL document CHEMBL6121018, “Targeting JNK3 for Alzheimer's disease: Design and synthesis of novel inhibitors with aryl group diversity utilizing wide pocket” (Eur J Med Chem, 2025)
Each block holds one compound with its values, some of them ahead of it.

Columns and labels:
Cortical neurone [1] = assay: (§1) Neuroprotective activity against amyloid beta (1 to 42 residues)-induced Sprague-Dawley rat primary cortical neurons assessed as cell viability at 20 uM pretreated with compound for 90 mins followed by amyloid beta (1 to 42 residues) induction for 24 hrs and measured on day 5 by MTT assay (reference value: 100%); type: functional; settings: 121.5 h, time 7290 min, read-out: Activity
Cortical neurone [2] = assay: as §1, with “10” for “20”; settings: 121.5 h, read-out: Activity
[3] = biological target: T1, Mitogen-activated protein kinase 10 (Homo sapiens, UniProt P53779); assay: Inhibition of JNK3 (unknown origin)
T1 sequence (P53779 whole entry): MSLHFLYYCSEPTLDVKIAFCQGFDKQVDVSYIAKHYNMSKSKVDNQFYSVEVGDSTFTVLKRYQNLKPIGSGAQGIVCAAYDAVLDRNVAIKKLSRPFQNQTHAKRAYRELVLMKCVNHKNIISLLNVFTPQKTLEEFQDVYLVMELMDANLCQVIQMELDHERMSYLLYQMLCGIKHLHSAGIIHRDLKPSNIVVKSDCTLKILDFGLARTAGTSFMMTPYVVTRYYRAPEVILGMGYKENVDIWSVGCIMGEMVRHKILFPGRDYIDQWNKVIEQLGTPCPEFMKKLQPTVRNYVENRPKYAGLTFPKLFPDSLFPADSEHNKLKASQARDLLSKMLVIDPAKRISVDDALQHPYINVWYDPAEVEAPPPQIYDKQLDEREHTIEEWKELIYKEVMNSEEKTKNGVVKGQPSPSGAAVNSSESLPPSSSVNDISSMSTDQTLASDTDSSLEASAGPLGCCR

in vitro [4] = settings: Sprague-Dawley, rat, primary cortical neurons
Description: Cytotoxicity against Sprague-Dawley rat Primary cortical neuron assessed as cell viability incubated for 24 hrs by MTT assay

in vitro [5] = settings: PAMPA
Description: Permeability coefficient of compound by PAMPA

[6] = biological target: Mitogen-activated protein kinase 9 (Homo sapiens, UniProt P45984)
Mitogen-activated protein kinase 9, sequence (P45984 whole entry): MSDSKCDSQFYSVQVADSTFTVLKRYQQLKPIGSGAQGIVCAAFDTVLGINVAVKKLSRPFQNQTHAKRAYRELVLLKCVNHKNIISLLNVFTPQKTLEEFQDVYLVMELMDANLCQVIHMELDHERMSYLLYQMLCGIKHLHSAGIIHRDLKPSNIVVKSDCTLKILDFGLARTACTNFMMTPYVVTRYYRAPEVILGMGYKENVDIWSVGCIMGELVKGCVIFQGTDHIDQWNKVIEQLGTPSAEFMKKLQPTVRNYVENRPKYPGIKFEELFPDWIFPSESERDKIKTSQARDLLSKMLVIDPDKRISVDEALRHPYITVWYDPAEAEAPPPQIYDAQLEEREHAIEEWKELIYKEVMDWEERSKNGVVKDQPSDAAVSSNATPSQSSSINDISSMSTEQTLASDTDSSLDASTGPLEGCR
Description: Inhibition of JNK2 (unknown origin) using 33P-ATP as substrate incubated for 2 hrs by P81 filter-binding method

[7] = biological target: Glycogen synthase kinase-3 beta (Homo sapiens, UniProt P49841); assay: Inhibition of GSK3beta (unknown origin) using 33P-ATP as substrate incubated for 2 hrs by P81 filter-binding method
Glycogen synthase kinase-3 beta, sequence (P49841 whole entry): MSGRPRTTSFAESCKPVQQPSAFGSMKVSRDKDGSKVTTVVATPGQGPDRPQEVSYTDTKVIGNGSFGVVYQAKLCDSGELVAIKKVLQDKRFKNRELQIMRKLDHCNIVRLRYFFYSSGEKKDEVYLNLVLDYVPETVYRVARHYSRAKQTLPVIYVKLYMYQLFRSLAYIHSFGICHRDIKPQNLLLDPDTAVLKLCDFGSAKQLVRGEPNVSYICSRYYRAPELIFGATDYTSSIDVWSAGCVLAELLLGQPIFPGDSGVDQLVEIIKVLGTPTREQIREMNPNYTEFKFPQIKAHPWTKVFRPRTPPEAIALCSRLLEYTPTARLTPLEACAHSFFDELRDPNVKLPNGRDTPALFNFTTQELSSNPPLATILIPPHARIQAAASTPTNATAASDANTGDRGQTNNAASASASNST

[8] = biological target: Glycogen synthase kinase-3 alpha (Homo sapiens, UniProt P49840); assay: Inhibition of GSK3alpha (unknown origin) using 33P-ATP as substrate incubated for 2 hrs by P81 filter-binding method
Glycogen synthase kinase-3 alpha, sequence (P49840 whole entry): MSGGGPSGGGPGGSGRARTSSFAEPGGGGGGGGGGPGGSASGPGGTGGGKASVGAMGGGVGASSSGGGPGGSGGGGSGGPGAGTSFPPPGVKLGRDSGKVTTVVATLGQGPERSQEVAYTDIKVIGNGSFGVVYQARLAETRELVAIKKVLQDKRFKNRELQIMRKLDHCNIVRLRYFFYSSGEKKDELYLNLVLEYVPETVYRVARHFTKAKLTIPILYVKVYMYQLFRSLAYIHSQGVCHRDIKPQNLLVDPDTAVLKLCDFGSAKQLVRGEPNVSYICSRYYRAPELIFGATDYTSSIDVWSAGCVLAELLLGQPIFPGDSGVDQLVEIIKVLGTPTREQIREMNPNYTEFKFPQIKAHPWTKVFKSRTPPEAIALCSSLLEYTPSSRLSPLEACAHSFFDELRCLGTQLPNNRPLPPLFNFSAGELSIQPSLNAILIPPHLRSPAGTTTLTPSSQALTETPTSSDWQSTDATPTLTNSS

[9] = biological target: Mitogen-activated protein kinase 8 (Homo sapiens, UniProt P45983)
Mitogen-activated protein kinase 8, sequence (P45983 whole entry): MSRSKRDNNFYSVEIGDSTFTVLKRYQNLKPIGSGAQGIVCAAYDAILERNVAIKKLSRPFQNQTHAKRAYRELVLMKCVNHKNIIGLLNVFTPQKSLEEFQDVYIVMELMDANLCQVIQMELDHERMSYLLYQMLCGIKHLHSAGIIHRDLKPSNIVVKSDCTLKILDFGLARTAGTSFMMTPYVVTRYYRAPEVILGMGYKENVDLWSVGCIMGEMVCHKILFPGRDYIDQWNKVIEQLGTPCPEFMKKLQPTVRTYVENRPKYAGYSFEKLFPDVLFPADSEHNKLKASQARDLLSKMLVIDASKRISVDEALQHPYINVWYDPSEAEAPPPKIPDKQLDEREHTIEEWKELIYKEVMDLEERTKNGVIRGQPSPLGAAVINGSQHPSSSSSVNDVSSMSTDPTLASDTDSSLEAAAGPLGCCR
Description: Inhibition of JNK1 (unknown origin) using 33P-ATP as substrate incubated for 2 hrs by P81 filter-binding method

[10] = biological target: Mitogen-activated protein kinase 14 (Homo sapiens, UniProt Q16539)
Mitogen-activated protein kinase 14, sequence (Q16539 whole entry): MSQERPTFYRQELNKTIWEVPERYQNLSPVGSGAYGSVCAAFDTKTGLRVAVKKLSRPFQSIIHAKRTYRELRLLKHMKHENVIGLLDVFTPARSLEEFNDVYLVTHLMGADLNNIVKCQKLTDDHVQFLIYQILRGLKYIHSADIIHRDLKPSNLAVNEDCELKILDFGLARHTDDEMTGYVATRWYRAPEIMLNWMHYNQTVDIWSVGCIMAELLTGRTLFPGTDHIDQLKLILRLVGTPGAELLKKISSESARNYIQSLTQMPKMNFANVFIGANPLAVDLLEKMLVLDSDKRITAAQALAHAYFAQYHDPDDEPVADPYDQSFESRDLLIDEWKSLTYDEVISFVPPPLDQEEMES
Description: Inhibition of p38alpha (unknown origin) using 33P-ATP as substrate incubated for 2 hrs by P81 filter-binding method

in vitro [11] = settings: human, plasma
Description: Stability in human plasma assessed as parent compound remaining at 30 mins

in vitro [12] = settings: human, plasma; remark: listed apart in the source
Description: Stability in human plasma assessed as parent compound remaining at 60 mins

[13] = biological target: T1, Mitogen-activated protein kinase 10; assay: Inhibition of JNK3 (unknown origin) using ATF as substrate in presence of [gamma-33P]ATP incubated for 40 mins by scintillation counter analysis
in vitro [14] = settings: human, liver microsomes

SMILES: Oc1ccc(/C=C/c2cc(O)cc(O)c2)cc1 [RESVERATROL]
viability at 20 µM (Cortical neurone [1]): 85%

SMILES: N#CCc1cc(-c2ccc(Cl)c(Cl)c2)n(-c2ccnc(N[C@H]3CCN(C(=O)C4CC4)C3)n2)n1
viability at 10 µM (Cortical neurone [2]): 14%
IC50 [3]: 227 nM
viability at 24 h (in vitro [4]): 103%

SMILES: CC(=O)[C@H]1CC[C@H]2[C@@H]3CCC4=CC(=O)CC[C@]4(C)[C@H]3CC[C@]12C [PROGESTERONE]
Papp (in vitro [5]): 40.7 ×10⁻⁶ cm/s

SMILES: NC(=O)c1nn(-c2ccnc(N[C@H]3CCCN(C(=O)C4CC4)C3)n2)cc1/C=C/c1ccccc1
IC50 [6]: 450 nM
IC50 [7]: 14 nM
IC50 [8]: 35 nM
IC50 [9]: 80 nM
IC50 [10]: Not_active

SMILES: COc1ccc(CCN(C)CCCC(C#N)(c2ccc(OC)c(OC)c2)C(C)C)cc1OC (stereo not drawn)
remaining at 1 h (in vitro [14]): 20.3%

Further lines, with some results ahead:

remaining at 0.5 h (in vitro [11]): 95%
remaining at 1 h (in vitro [12]): 90%
SMILES: CCOC(=O)[C@H](CCc1ccccc1)N[C@@H](C)C(=O)N1CCC[C@H]1C(=O)O

IC50 [13]: 276 nM
SMILES: CN1CCN(c2ccc(Nc3nccc(-n4cc(/C=C/c5ccccc5)c(C(N)=O)n4)n3)cc2)CC1
viability at 24 h (in vitro [4]): 104%

IC50 [13]: 96 nM
SMILES: CN(C)C1CCN(c2ccc(Nc3nccc(-n4cc(/C=C/c5ccccc5)c(C(N)=O)n4)n3)cc2)CC1
viability at 24 h (in vitro [4]): 102%

IC50 [13]: 8330 nM
SMILES: CCOC(=O)c1nn(-c2ccnc(Nc3ccc(N4CCC(N(C)C)CC4)cc3)n2)cc1/C=C/c1cccc(Br)c1
